Data taken from US20230173113A1, “CYCLIC PEPTIDES AND THEIR CONJUGATES FOR ADDRESSING ALPHA-V-BETA-6 INTEGRIN IN VIVO” (Technische Universität München, priority 2020, published 2023).

How the values were obtained:
[1] = test system: H2009 tumor-bearing SCID mice; assay: biokinetics from 90-min dynamic PET scans; conditions: mouse, in vivo
Text: All animal studies have been performed in accordance with general animal welfare regulations in Germany and the institutional guidelines for the care and use of animals. H2009 human lung adenocarcinoma cells (CRL-5911; American Type Culture Collection) were cultivated as recommended by the distributor. To generate tumor xenografts, 6- to 8-week-old female CB17 SCID mice (Charles River) were inoculated with 10^7 H2009 cells in Matrigel (CultrexBME, type 3 PathClear; Trevigen, GENTAUR GmbH). Mice were used for biodistribution or PET studies when tumors had grown to a diameter of 10-12 mm (4-6 weeks after inoculation).
Mice were anaesthetized with isoflurane for intravenous administration of the radiolabeled compounds. The administered activity per mouse ranged between 10 and 15 MBq (100-200 pmol, depending on variations in timing of production and administration). PET imaging was performed on a Siemens Inveon small-animal PET system, either dynamic under isoflurane anaesthesia for 90 min, or as single frames 75 min p.i. with an acquisition time of 20 min. Data were reconstructed using Siemens Inveon Research Workspace software, employing a three-dimensional ordered subset expectation maximum (OSEM3D) algorithm without scatter and attenuation correction. For kinetic analyses, regions of interest (ROIs) were defined manually.

[2] = molecular target: αvβ3 (Homo sapiens, UniProt P05106+P06756); conditions: cited from earlier work
[3] = molecular target: αvβ6-integrin (Homo sapiens, UniProt P06756+P18564); conditions: cited from earlier work
Chain of αvβ6-integrin (P06756 31-992 limits assumed): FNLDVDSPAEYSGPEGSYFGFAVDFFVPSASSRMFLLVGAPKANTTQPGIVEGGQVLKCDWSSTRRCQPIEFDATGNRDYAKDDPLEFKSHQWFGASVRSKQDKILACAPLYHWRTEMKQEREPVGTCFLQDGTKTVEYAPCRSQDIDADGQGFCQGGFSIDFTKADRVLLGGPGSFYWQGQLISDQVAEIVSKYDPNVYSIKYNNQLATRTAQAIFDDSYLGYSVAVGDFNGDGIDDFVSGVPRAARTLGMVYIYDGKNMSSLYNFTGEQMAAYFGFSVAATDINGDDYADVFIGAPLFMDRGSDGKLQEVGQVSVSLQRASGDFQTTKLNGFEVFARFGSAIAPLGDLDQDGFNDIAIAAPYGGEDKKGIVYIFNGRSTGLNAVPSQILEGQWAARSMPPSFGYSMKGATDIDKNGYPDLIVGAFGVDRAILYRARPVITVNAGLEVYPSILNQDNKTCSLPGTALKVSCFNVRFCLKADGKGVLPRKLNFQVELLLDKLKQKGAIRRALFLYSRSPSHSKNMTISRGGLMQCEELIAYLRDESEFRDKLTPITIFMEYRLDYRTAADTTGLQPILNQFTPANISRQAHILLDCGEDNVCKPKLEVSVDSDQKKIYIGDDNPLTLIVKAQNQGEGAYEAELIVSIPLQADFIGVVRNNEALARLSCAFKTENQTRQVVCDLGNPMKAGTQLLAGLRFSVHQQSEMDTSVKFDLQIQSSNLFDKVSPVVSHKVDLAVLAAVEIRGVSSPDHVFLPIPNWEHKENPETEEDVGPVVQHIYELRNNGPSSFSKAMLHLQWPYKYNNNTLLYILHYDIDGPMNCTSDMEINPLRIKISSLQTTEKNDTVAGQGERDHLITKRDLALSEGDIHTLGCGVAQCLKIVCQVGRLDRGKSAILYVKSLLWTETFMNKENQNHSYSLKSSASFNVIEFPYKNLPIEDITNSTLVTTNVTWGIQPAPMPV
Chain of αvβ6-integrin (P18564 22-707 limits assumed): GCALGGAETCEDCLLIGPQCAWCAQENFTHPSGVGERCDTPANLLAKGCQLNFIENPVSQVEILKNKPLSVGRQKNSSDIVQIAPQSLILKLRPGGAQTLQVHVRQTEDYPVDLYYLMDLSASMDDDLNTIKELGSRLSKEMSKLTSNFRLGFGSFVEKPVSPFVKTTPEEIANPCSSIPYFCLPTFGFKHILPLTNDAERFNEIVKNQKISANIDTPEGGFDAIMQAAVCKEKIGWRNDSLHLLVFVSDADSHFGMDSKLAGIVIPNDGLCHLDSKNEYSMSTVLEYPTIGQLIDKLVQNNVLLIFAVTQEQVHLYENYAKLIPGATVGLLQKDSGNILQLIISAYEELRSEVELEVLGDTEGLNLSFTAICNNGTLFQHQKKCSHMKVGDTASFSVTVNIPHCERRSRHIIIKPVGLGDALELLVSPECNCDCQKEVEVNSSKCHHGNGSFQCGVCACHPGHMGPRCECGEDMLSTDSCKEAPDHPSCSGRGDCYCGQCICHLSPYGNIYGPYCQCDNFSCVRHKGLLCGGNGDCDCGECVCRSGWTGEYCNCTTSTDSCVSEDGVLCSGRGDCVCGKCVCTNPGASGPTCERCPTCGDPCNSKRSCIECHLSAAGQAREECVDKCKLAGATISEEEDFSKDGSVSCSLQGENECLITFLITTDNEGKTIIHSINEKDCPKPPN

[4] = molecular target: αIIbβ3 (Homo sapiens, UniProt P05106+P08514); conditions: cited from earlier work
[5] = molecular target: αvβ5 (Homo sapiens, UniProt P06756+P18084); conditions: cited from earlier work
Chain of αvβ5 (P06756 31-1048): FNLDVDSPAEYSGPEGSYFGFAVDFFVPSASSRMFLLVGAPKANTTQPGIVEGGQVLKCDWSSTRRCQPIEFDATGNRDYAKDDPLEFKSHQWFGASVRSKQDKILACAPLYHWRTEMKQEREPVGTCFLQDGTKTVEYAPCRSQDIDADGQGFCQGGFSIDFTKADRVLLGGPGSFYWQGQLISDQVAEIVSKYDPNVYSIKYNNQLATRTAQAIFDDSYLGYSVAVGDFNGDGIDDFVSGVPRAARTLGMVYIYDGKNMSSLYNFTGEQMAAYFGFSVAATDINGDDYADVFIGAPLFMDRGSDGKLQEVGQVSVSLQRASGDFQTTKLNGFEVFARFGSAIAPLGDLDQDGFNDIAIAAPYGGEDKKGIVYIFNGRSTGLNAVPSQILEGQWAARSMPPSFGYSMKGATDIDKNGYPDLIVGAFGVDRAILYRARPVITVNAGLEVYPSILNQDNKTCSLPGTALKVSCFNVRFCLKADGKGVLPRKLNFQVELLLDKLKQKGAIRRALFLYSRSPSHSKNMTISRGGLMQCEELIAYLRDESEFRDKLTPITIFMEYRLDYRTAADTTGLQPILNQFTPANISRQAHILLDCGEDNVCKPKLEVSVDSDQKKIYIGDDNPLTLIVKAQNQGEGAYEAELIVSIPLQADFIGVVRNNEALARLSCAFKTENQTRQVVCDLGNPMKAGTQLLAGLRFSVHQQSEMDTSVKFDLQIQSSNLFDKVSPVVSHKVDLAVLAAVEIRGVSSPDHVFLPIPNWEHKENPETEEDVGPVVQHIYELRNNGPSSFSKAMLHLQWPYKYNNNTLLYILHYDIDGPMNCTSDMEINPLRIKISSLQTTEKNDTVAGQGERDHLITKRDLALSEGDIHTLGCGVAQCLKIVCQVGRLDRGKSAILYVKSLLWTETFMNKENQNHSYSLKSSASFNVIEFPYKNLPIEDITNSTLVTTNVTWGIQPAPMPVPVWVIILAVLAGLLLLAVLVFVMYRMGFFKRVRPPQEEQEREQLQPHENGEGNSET
Chain of αvβ5 (P18084 24-799): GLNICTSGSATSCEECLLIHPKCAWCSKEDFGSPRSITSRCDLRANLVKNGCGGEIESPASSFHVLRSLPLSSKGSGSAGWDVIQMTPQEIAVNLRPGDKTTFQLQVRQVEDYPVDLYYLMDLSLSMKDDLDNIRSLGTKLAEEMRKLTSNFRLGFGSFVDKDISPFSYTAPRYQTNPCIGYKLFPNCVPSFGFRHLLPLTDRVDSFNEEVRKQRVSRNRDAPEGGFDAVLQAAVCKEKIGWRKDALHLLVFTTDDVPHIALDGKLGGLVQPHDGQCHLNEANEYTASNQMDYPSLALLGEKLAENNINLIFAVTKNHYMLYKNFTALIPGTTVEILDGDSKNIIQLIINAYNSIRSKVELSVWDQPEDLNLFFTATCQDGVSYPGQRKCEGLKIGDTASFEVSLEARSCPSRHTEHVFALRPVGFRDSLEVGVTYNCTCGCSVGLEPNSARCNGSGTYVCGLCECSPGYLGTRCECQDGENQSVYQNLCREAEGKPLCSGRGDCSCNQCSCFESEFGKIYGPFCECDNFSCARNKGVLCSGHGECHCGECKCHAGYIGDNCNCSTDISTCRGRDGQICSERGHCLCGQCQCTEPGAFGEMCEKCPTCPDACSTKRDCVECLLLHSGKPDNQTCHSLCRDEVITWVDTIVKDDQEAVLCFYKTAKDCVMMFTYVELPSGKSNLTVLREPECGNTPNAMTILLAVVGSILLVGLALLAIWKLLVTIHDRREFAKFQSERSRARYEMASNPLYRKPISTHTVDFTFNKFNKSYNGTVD

[6] = molecular target: α5β1 (Homo sapiens, UniProt P05556+P08648); conditions: cited from earlier work
Chain of α5β1 (P08648 42-995 limits assumed): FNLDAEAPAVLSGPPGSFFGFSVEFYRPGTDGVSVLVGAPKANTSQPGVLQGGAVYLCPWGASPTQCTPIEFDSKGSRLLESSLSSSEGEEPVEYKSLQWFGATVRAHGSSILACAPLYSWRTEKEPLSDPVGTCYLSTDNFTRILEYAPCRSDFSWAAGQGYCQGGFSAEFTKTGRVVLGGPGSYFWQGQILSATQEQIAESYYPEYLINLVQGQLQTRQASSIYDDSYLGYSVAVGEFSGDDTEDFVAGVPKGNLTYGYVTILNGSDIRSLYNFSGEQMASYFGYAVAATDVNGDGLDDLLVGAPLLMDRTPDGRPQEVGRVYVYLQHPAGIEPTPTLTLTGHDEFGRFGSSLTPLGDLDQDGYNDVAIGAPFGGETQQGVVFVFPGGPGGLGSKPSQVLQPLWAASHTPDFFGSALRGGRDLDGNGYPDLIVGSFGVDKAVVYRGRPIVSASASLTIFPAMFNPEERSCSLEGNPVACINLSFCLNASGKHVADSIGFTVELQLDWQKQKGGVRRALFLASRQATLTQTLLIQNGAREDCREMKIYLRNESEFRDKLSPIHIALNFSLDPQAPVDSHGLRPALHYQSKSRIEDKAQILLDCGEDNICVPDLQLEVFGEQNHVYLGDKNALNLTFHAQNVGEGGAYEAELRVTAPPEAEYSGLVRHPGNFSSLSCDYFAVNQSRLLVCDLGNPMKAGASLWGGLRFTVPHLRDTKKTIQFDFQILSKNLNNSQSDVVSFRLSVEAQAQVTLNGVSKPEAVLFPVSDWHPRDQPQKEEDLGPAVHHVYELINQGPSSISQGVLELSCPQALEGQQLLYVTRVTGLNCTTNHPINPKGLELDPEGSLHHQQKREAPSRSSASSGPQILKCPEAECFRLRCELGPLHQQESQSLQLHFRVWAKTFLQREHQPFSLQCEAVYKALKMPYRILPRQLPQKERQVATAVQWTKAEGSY
Chain of α5β1 (P05556 21-728 limits assumed): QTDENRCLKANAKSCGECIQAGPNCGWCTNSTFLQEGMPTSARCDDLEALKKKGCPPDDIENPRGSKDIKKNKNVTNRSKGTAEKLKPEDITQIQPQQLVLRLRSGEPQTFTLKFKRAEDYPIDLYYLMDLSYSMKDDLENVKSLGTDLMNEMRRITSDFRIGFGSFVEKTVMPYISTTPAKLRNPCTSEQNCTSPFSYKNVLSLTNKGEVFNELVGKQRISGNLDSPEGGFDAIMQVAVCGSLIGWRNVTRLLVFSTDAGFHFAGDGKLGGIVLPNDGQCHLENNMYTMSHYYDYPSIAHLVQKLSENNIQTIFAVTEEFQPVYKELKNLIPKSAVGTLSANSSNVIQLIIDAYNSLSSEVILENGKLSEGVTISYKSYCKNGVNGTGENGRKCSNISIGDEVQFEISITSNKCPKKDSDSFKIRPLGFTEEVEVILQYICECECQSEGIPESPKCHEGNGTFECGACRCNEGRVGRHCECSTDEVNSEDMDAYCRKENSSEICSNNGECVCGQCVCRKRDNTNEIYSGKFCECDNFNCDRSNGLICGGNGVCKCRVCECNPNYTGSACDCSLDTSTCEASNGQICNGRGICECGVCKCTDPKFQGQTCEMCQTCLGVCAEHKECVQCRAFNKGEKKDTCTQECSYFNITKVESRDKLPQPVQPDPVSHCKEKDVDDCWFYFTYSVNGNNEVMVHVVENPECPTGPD

[7] = up to 3 h; cited from earlier work

Molecule	clearance from the blood pool [1]	affinity αvβ3 (selectivity against other integrins) [2] [nM]	affinity to αvβ6-integrin [3] [nM]	affinity αIIbβ3 (selectivity against other integrins) [4] [µM]	affinity αvβ5 (selectivity against other integrins) [5] [µM]	affinity α5β1 (selectivity against other integrins) [6] [nM]	stability in human plasma [7]
CC(C)C[C@@H]1NC(=O)[C@H](CC(=O)O)NC(=O)CNC(=O)[C@H](CCCNC(=N)N)NC(=O)[C@H](Cc2ccc(O)cc2)NC(=O)[C@H](CCCCNC(=O)CCc2cn(CCCNC(=O)CCP(=O)(O)CN3CCN(CP(=O)(O)CCC(=O)NCCCn4cc(CCC(=O)NCCCC[C@H]5C(=O)N[C@@H](Cc6ccc(O)cc6)C(=O)N[C@@H](CCCNC(=N)N)C(=O)NCC(=O)N[C@@H](CC(=O)O)C(=O)N[C@@H](CC(C)C)C(=O)N[C@@H](C)C(=O)N[C@@H](Cc6ccccc6)C(=O)N6CCC[C@@H]6C(=O)N5C)nn4)CCN(CP(=O)(O)CCC(=O)NCCCn4cc(CCC(=O)NCCCC[C@H]5C(=O)N[C@@H](Cc6ccc(O)cc6)C(=O)N[C@@H](CCCNC(=N)N)C(=O)NCC(=O)N[C@@H](CC(=O)O)C(=O)N[C@@H](CC(C)C)C(=O)N[C@@H](C)C(=O)N[C@@H](Cc6ccccc6)C(=O)N6CCC[C@@H]6C(=O)N5C)nn4)CC3)nn2)N(C)C(=O)[C@H]2CCCN2C(=O)[C@H](Cc2ccccc2)NC(=O)[C@H](C)NC1=O [Ga-68-C-9, metal not drawn]	much faster than that of Ga-68-TRAP(Phe2)3	–	–	–	–	–	–
cyclo(FRGDLAFp(NMe)K) [Phe2]	–	632	0.26	> 1	> 1	73	full stability
